Results taken from US8815833B2, “Stable amifostine liquid concentrate” (Seidose, LLC, priority 2006, dated 2014).
Values after ≈ are worked out from the molar mass of the structure shown. Like-named read-outs stand apart in the source and are kept apart here. Marks after values point to notes of the source that are not given here.

Assays:
[1] = cited from earlier work
[2] = Merck Index, cited from earlier work
[3] = Storage stability of amifostine solutions by stability indicating HPLC method (% remaining); format: physicochemical
Procedure: As will be seen below in Example 1, a 250 mg/ml liquid concentrate was prepared at pH 9, and 200 mg/ml liquid concentrates were prepared at pH 10.5, 11.5, 12.5 and 13. The stability was monitored at 40° C., 25° C. and 5° C. by a stability indicating HPLC method using the following HPLC conditions:
Solutions of amifostine at 200 mg/ml or 250 mg/ml were prepared at the pHs shown in the table below and stored at the temperatures indicated for the times indicated. “% remaining” in the table below is determined by the HPLC method described earlier in the specification.

[4] = Hydrolysis of amifostine to free thiol metabolite as function of pH (stability evaluations); format: physicochemical
Excerpt: At pH 7.4, the intrinsic pH, amifostine has a net neutral charge as a double zwitterion with the phosphate completely dissociated (−2) and the amino groups fully protonated (+2). During stability evaluations carried out for the purposes of the present invention it was observed that the hydrolysis of amifostine to release free thiol metabolite is rapid at acidic pH and even at weakly acidic pH. On the other hand, the hydrolysis was almost 100-fold slower at pH 10 and above.

physchem = format: physicochemical; conditions: for crystallization of solution: 200 mg/ml solution
Procedure: Amifostine is a phospho ester compound that is used pharmacologically for the amelioration of side effects of radiation and chemotherapy. The compound is currently marketed as a lyophilizate of a crystalline trihydrate of amifostine, typically in vials of 500 mg, which is reconstituted to a final administration concentration of 5 to 40 mg/ml for IV infusion. […] Amifostine is known to undergo hydrolysis in aqueous solution at acidic, neutral, and mild basic conditions. Thus, it was believed that stable aqueous formulations that would not hydrolyze to any appreciable extent over typical storage time periods were not likely to be found. […] Thus, aqueous liquid concentrates of amifostine were simply thought not possible. Because such an aqueous liquid amifostine concentrate would eliminate a potential source of dosing errors in clinical practice, there is clearly a need for the same.
(§1) At pH 9.0, 50% of the amifostine is present as the double zwitterion and 50% of amine 1 (primary amine) is present as the free base form making 50% of the amifostine have a net negative charge. At pH 10.0, only 10% of amifostine is present as a double zwitterion and the other 90% has a net negative charge; amine 1 is mainly in the free base form. […] Approximately 1% is present as the double zwitterion. More importantly, 17% of amifostine has both amines in the un-ionized form as free bases and this particular ionic species of the molecule carries about −2 charge. At this pH (11), it is observed that there is a significant improvement in the stability. […] At pH 13, over 95% of the amifostine is present with both amines in their free base forms with improved stability.

[5] = Approximate concentration of ionic species as function of pH according to the pKa values; format: physicochemical
Excerpt: There are four pKas for amifostine. The Merck Index lists them to be <2.0, 4.2, 9.0 and 11.7. The amino groups (2) and the phosphate group (2 pKa per group) can all be completely protonated. [Ref: Structure of Radio protective agent S-2(3-Aminoprpropylamino)ethylphosphorthioic acid (WR 2721) Jean Karle, Acta Cryst (1988) C44 135-138]. The usual form crystallized from solution is a double zwitterion with the phosphate completely dissociated (−2) and the amino groups fully protonated (+2). It is usually drawn with the amines in their free base form and the phosphate completely protonated but that is not how it exists in solution. So, the two pKa values from the double zwitterion are for the two amino functions ionizing (i.e., pKas 3 & 4). The first two pKas are for the phosphate which are perturbed by the two positive charges on the amino groups which pushes them lower than pKa1 and pKa2 for phosphoric acid. The following table describes the ionic nature of the compound as function of pH according to the pKa values reported in the Merck Index. The table also summarizes the approximate concentration of ionic species as function of pH:
as §1

Structure (SMILES): NCCCNCCSP(=O)(O)O [amifostine trihydrate]
- crystallization of solution ([1]; about 200 mg/ml solution in water stored at refrigerated conditions): substantial crystallization results
- aqueous solubility in water ([1]; ambient conditions): about 200 mg/ml

Structure (SMILES): NCCCNCCSP(=O)(O)O [amifostine, S-2(3-Aminoprpropylamino)ethylphosphorthioic acid]
- pKa ([2]; first pKa (phosphate)): < 2.0
- pKa ([2]; fourth pKa (sec. amine, amine 2)): 11.7
- pKa ([2]; second pKa (phosphate)): 4.2
- pKa ([2]; third pKa (prim. amine, amine 1)): 9.0
- potency loss ([3]; 5° C., 180-day storage, pH 12.5 and 13 formulations): ≤ 3%
- % remaining ([3]; pH 7.4, 200 mg/ml, 25° C., 7 days): 89%
- % remaining ([3]; pH 7.4, 200 mg/ml, 25° C., 14 days): 78%
- % remaining ([3]; pH 7.4, 200 mg/ml, 25° C., 25 days): 60%
- % remaining ([3]; pH 7.4, 200 mg/ml, 25° C., 33 days): 52%
- % remaining ([3]; pH 7.4, 200 mg/ml, 40° C., 2 days): 71%
- % remaining ([3]; pH 7.4, 250 mg/ml, 40° C., 1 day): 84%
- % remaining ([3]; pH 7.4, 250 mg/ml, 40° C., 2 days): 66%
- % remaining ([3]; pH 7.4, 250 mg/ml, 40° C., 3 days): 57%
- % remaining ([3]; pH 9.0, 250 mg/ml, 5° C., 90 days): 96%
- % remaining ([3]; pH 9.0, 250 mg/ml, 5° C., 180 days): 91* %
- % remaining ([3]; pH 9.0, 250 mg/ml, 25° C., 10 days): 83%
- % remaining ([3]; pH 9.0, 250 mg/ml, 25° C., 25 days): 60%
- % remaining ([3]; pH 9.0, 250 mg/ml, 40° C., 1 day): 83%
- % remaining ([3]; pH 10.5, 200 mg/ml, 5° C., 90 days): 94%
- % remaining ([3]; pH 10.5, 200 mg/ml, 5° C., 180 days): 90%
- % remaining ([3]; pH 10.5, 200 mg/ml, 25° C., 10 days): 85%
- % remaining ([3]; pH 10.5, 200 mg/ml, 25° C., 25 days): 62%
- % remaining ([3]; pH 10.5, 200 mg/ml, 25° C., 35 days): 57%
- % remaining ([3]; pH 10.5, 200 mg/ml, 25° C., 60 days): 39%
- % remaining ([3]; pH 10.5, 200 mg/ml, 40° C., 1 day): 84%
- % remaining ([3]; pH 10.5, 200 mg/ml, 40° C., 2 days): 75%
- % remaining ([3]; pH 11.5, 200 mg/ml, 5° C., 90 days): 93%
- % remaining ([3]; pH 11.5, 200 mg/ml, 5° C., 180 days): 92%
- % remaining ([3]; pH 11.5, 200 mg/ml, 25° C., 10 days): 86%
- % remaining ([3]; pH 11.5, 200 mg/ml, 25° C., 25 days): 64%
- % remaining ([3]; pH 11.5, 200 mg/ml, 25° C., 60 days): 51%
- % remaining ([3]; pH 11.5, 200 mg/ml, 40° C., 1 day): 90%
- % remaining ([3]; pH 12.5, 200 mg/ml, 5° C., 90 days): 99%
- % remaining ([3]; pH 12.5, 200 mg/ml, 5° C., 180 days): 97%
- % remaining ([3]; pH 12.5, 200 mg/ml, 25° C., 10 days): 94%
- % remaining ([3]; pH 12.5, 200 mg/ml, 25° C., 32 days): 86%
- % remaining ([3]; pH 12.5, 200 mg/ml, 25° C., 60 days): 74%
- % remaining ([3]; pH 12.5, 200 mg/ml, 40° C., 4 days): 77%
- % remaining ([3]; pH 13.0, Batch #1, 200 mg/ml, 5° C., 90 days): 99%
- % remaining ([3]; pH 13.0, Batch #1, 200 mg/ml, 5° C., 180 days): 98%
- % remaining ([3]; pH 13.0, Batch #1, 200 mg/ml, 5° C., 270 days): 95%
- % remaining ([3]; pH 13.0, Batch #1, 200 mg/ml, 25° C., 18 days): 96%
- % remaining ([3]; pH 13.0, Batch #1, 200 mg/ml, 25° C., 36 days): 82%
- % remaining ([3]; pH 13.0, Batch #1, 200 mg/ml, 25° C., 60 days): 74%
- % remaining ([3]; pH 13.0, Batch #1, 200 mg/ml, 40° C., 4 days): 85-86%
- % remaining ([3]; pH 13.0, Batch#2, 200 mg/ml, 5° C., 90 days): 100%
- % remaining ([3]; pH 13.0, Batch#2, 200 mg/ml, 5° C., 180 days): 97%
- % remaining ([3]; pH 13.0, Batch#2, 200 mg/ml, 5° C., 270 days): 95%
- % remaining ([3]; pH 13.0, Batch#2, 200 mg/ml, 25° C., 18 days): 96%
- % remaining ([3]; pH 13.0, Batch#2, 200 mg/ml, 25° C., 36 days): 82%
- % remaining ([3]; pH 13.0, Batch#2, 200 mg/ml, 25° C., 90 days): 75%
- % remaining ([3]; pH 13.0, batch #3, 200 mg/ml, 5° C., 90 days): 101%
- % remaining ([3]; pH 13.0, batch #3, 200 mg/ml, 5° C., 180 days): 97%
- % remaining ([3]; pH 13.0, batch #3, 200 mg/ml, 5° C., 270 days): 95%
- % remaining ([3]; pH 13.0, batch #3, 200 mg/ml, 25° C., 18 days): 97%
- % remaining ([3]; pH 13.0, batch #3, 200 mg/ml, 25° C., 36 days): 82%
- % remaining ([3]; pH 13.0, batch #3, 200 mg/ml, 25° C., 90 days): 76%
- hydrolysis to release free thiol metabolite ([4]; acidic pH and even weakly acidic pH): rapid
- hydrolysis slower than at acidic / weakly acidic pH ([4]; pH 10 and above): ~100 fold
- crystallization of solution (physchem; below pH 10, refrigeration conditions): crystallizes out
- crystallization of solution (physchem; pH 10.0, refrigeration conditions): remained clear with no crystallization observed
- solubility (physchem; 5 °C, pH 10, water): ~100 mg/mL (≈ 467 mM)
- Prim. amine (pKa 9.0) Protonated ([5]; pH 7): ~100%
- Prim. amine (pKa 9.0) Unprotonated ([5]; pH 7): ~0%
- Sec. amine (pKa 11.7) Protonated ([5]; pH 7): ~100%
- Sec. amine (pKa 11.7) Unprotonated ([5]; pH 7): ~0%
- Prim. amine (pKa 9.0) Protonated ([5]; pH 9): ~50%
- Prim. amine (pKa 9.0) Unprotonated ([5]; pH 9): ~50%
- Sec. amine (pKa 11.7) Protonated ([5]; pH 9): ~100%
- Sec. amine (pKa 11.7) Unprotonated ([5]; pH 9): ~0%
- amine 1 present as free base form, net negative charge ([5]; pH 9.0): 50%
- present as the double zwitterion ([5]; pH 9.0): 50%
- Prim. amine (pKa 9.0) Protonated ([5]; pH 10): ~10%
- Prim. amine (pKa 9.0) Unprotonated ([5]; pH 10): ~90%
- Sec. amine (pKa 11.7) Protonated ([5]; pH 10): ~100%
- Sec. amine (pKa 11.7) Unprotonated ([5]; pH 10): ~0%
- has a net negative charge (amine 1 free base) ([5]; pH 10.0): 90%
- present as a double zwitterion ([5]; pH 10.0): 10%
- Prim. amine (pKa 9.0) Protonated ([5]; pH 11): ~1%
- Prim. amine (pKa 9.0) Unprotonated ([5]; pH 11): ~99%
- Sec. amine (pKa 11.7) Protonated ([5]; pH 11): ~83%
- Sec. amine (pKa 11.7) Unprotonated ([5]; pH 11): ~17%
- both amines in the un-ionized form as free bases (about -2 charge) ([5]; pH 11.5 solution): 17%
- present as the double zwitterion ([5]; pH 11.5 solution): Approximately 1%
- Prim. amine (pKa 9.0) Protonated ([5]; pH 12): ~0.1%
- Prim. amine (pKa 9.0) Unprotonated ([5]; pH 12): >99.9%
- Sec. amine (pKa 11.7) Protonated ([5]; pH 12): ~33%
- Sec. amine (pKa 11.7) Unprotonated ([5]; pH 12): ~67%
- Prim. amine (pKa 9.0) Protonated ([5]; pH 13): ~0.01%
- Prim. amine (pKa 9.0) Unprotonated ([5]; pH 13): 99.99%^
- Sec. amine (pKa 11.7) Protonated ([5]; pH 13): <5%
- Sec. amine (pKa 11.7) Unprotonated ([5]; pH 13): >95%
- present with both amines in their free base forms ([5]; pH 13): over 95%
